Read-outs that look alike come from different tables or passages of the source.
Test: MALDI quantitative MSI (on-tissue qMSI) of rotenone in kidney tissue sections after a single oral dose
Format: in vivo
Conditions: rat, single oral 2 mg/kg; for concentration at 24 h: kidney, po, 2 mg/kg
Protocol: Rats were sacrificed 24 h after drug administration, and the kidney and liver organs were immediately removed, flash-frozen with liquid nitrogen, and stored at −80°C in a freezer for long-term storage. The administration and harvesting of organs were conducted by the Pharmalytics Corporation, accredited by the Food and Drug Administration (FDA, Philippines) for bioavailability and bioequivalence research. The animal study was reviewed and approved by the Institutional Animal Care and Use Committee (IACUC) Esteleydes Animal Laboratory and Research Facility and by the Bureau of Animal Industry—Animal Health and Welfare Division in the Philippines.
Agarose-embedded kidney and liver organs were cut longitudinally at 5 µm thickness at −20°C using a cryostat (Leica CM 1950; Leica Biosystems, Germany), and thaw-mounted onto clean glass slides. The agarose-embedded kidney or liver was trimmed up to 500 µm to remove the agarose covering a portion of the organ. Subsequently, seven layers from the outer portion towards the middle were identified with a 100 µm distance between each layer. Representative cryosections were obtained from each identified layer of the untreated and drug-treated rat kidney. The agarose surrounding the kidney or liver cryosectioned tissue was manually removed before mounting onto a glass slide. Prior to matrix coating, the glass slides mounted with thin kidney cryosections were placed in a box and kept in a vacuum desiccator cabinet overnight ([Costa et al., 2013]; [Marques et al., 2014]; [Dalisay et al., 2015]; [Suarez et al., 2023]).
Matrix solution was applied to evenly coat the entire tissue surface using a HTX M5 Sprayer (HTX Technologies, LLC, Carrboro, NC, United States). The parameter settings were optimized to avoid metabolite delocalization and compromised spatial integrity. The kidney sections were sprayed with a matrix solution of 2,5-dihydroxybenzoic acid (DHB) (Acros Organics, New Jersey, United States) at a concentration of 40 mg/mL in MeOH/H2O (1:1 v/v). Matrix solution was homogeneously applied for 6 passes in a criss-cross (CC) pattern with a nozzle temperature of 80°C, 1 mm track spacing, 1,250 mm/min nozzle speed, and 10 psi nitrogen pressure.
This method utilized an untreated kidney tissue sample which was sectioned and mounted on a clean glass slide. An on-tissue calibration curve method for qMSI was followed ([Kibbe and Muddiman, 2024]). […] Linear regression analysis was applied and inspected to confirm linearity. The untreated tissue was spotted with calibrants, allowed to dry, and coated with matrix (DHB 40 mg/mL in MeOH:H2O, 1:1 v/v). MALDI MSI data were acquired in 100 μm pixel resolution using MALDI SYNAPT XS (Waters Corporation, Manchester, United Kingdom) in positive mode. The experiment was performed with three replicates per calibrant in three independent trials. In order to address variations that may occur during data acquisition for qMSI, the ion signals were normalized to the total ion current (TIC). The intensities obtained for each concentration were plotted and approximated using the least-squares method. The limits of detection (LOD) and quantification (LOQ) were calculated by averaging the calibration curves, using signal-to-noise ratios (S/N) of 3:1 for LOD and 10:1 for LOQ. The validity of these limits was confirmed by applying serially diluted rotenone onto the tissue. In cases where the blank response has a standard deviation (SD) of zero, the SD of the lowest non-zero concentration was utilized. The SD value was divided by the slope of the calibration curve and multiplied by 3.3. The LOD was calculated using the formula LOD=3.3 x SDlowest non−zero concentration/slope of the calibration curve
To calculate the LOD and LOQ values in kidney tissue (pg/ng), the values were divided by the renal tissue density (ng/µL). […]

Structure (SMILES): C=C(C)[C@H]1Cc2c(ccc3c2O[C@@H]2COc4cc(OC)c(OC)cc4[C@@H]2C3=O)O1 [rotenone, Rotenone]
- concentration at 24 h (AVERAGE ± SD of 7 kidney tissue sections, read-out: Concentration): 6200 ± 3800 ng/mL
- concentration at 24 h (AVERAGE ± SD of 7 kidney tissue sections, read-out: Relative concentration per tissue section): 5860 ng/g
- concentration at 24 h (Kidney Tissue 1 (layer 1), read-out: Concentration): 3600 ng/mL
- concentration at 24 h (Kidney Tissue 1 (layer 1), read-out: Relative concentration per tissue section): 1650 ng/g
- concentration at 24 h (Kidney Tissue 2 (layer 2), read-out: Concentration): 2000 ng/mL
- concentration at 24 h (Kidney Tissue 2 (layer 2), read-out: Relative concentration per tissue section): 1100 ng/g
- concentration at 24 h (Kidney Tissue 3 (layer 3), read-out: Concentration): 2600 ng/mL
- concentration at 24 h (Kidney Tissue 3 (layer 3), read-out: Relative concentration per tissue section): 1910 ng/g
- concentration at 24 h (Kidney Tissue 4 (layer 4), read-out: Concentration): 7200 ng/mL
- concentration at 24 h (Kidney Tissue 4 (layer 4), read-out: Relative concentration per tissue section): 5950 ng/g
- concentration at 24 h (Kidney Tissue 5 (layer 5), read-out: Concentration): 7000 ng/mL
- concentration at 24 h (Kidney Tissue 5 (layer 5), read-out: Relative concentration per tissue section): 6420 ng/g
- concentration at 24 h (Kidney Tissue 6 (layer 6), read-out: Concentration): 8000 ng/mL
- concentration at 24 h (Kidney Tissue 6 (layer 6), read-out: Relative concentration per tissue section): 9210 ng/g
- concentration at 24 h (Kidney Tissue 7 (layer 7), read-out: Concentration): 12800 ng/mL
- concentration at 24 h (Kidney Tissue 7 (layer 7), read-out: Relative concentration per tissue section): 14700 ng/g
- Normalized Mass intensity by TIC (24 h, AVERAGE ± SD of 7 kidney tissue sections): 0.0042 ± 0.0019
- Normalized Mass intensity by TIC (24 h, Kidney Tissue 1 (layer 1)): 0.0030
- Normalized Mass intensity by TIC (24 h, Kidney Tissue 2 (layer 2)): 0.0022
- Normalized Mass intensity by TIC (24 h, Kidney Tissue 3 (layer 3)): 0.0025
- Normalized Mass intensity by TIC (24 h, Kidney Tissue 4 (layer 4)): 0.0048
- Normalized Mass intensity by TIC (24 h, Kidney Tissue 5 (layer 5)): 0.0047
- Normalized Mass intensity by TIC (24 h, Kidney Tissue 6 (layer 6)): 0.0052
- Normalized Mass intensity by TIC (24 h, Kidney Tissue 7 (layer 7)): 0.0076
- Detected amount of rotenone drug in picograms per nanogram of tissue mass (24 h, range over seven kidney layers): 0.0011 to 0.0147 pg/ng

Source: PMC11246995 (Frontiers in Molecular Biosciences, 2024)
